# Experiments:
# [1] = test system: PpyLit, chimeric luciferase of PpyWT residues 1-439 and LitWT residues 440-550, SEQ ID NO: 8; test: Relative rate of adenylate formation (L-AMP formation from dehydroluciferin), fluorescence-based; type: biochemical, Photinus pyralis / Luciola italica; details: faster than PpyWT, pH 7.4
# Experimental: Using an excitation wavelength of 350 nm, the luciferase-catalyzed formation of L-AMP from dehydroluciferin (L), initiated by the addition of Mg-ATP, was assessed by following the decrease in the intensity of the 440 nm fluorescence of the initial enzyme-L complex. The change in fluorescence was used to estimate the rates of L-AMP formation catalyzed by the luciferases. Assays (0.4 mL) in 50 mM Tris buffer, pH 7.4 contained 2.8 μM enzyme and 0.55 μM L. The initial fluorescence at 440 nm was recorded and then the decrease was monitored following the rapid injection of 50 μL solutions of varying concentrations of Mg-ATP in the same buffer. The rates of decrease (slopes) were calculated and used to determine the initial velocities for each Mg-ATP concentration. The data were fitted using a nonlinear least squares method of the Enzyme Kinetics Pro software (SynTex), which fits data from the Michalis-Menten equation to a rectangular hyperbola, and the Vmax values were obtained. The corresponding kcat values were obtained by dividing the Vmax values (μmol/s) by the final amounts (μmol) of each luciferase in the assay mixtures.
# [2] = test system: LitPpy, chimeric luciferase of LitWT residues 1-439 and PpyWT residues 440-550; test: Steady-state kinetic constants, bioluminescence activity; type: biochemical, Luciola italica / Photinus pyralis; details: pH 7.8
# Experimental: (§1) Reactions were initiated by injection of solutions of the substrate being maintained at saturating concentration. Kinetic constants were determined using a nonlinear least squares method of the Enzyme Kinetics Pro software (SynTex), which fits data from the Michalis-Menten equation to a rectangular hyperbola. The corresponding kcat values were obtained by dividing the Vmax values by the amount (μmol) of each luciferase in the assay mixtures.
# [3] = test system: PpyLit (chimeric luciferase, SEQ ID NO: 8) variant S284T; test: as above; type: biochemical, Photinus pyralis / Luciola italica; details: pH 7.8
# Experimental: as §1
# [4] = test system: Ppy GR-TSLit, chimeric luciferase of Ppy GR-TS N-domain and LitWT C-domain; test: as above; type: biochemical, Photinus pyralis / Luciola italica; details: pH 7.8
# Experimental: as §1
# [5] = test system: PpyLit (chimeric luciferase, SEQ ID NO: 8) variant S284T/F465R; test: as above; type: biochemical, Photinus pyralis / Luciola italica; details: pH 7.8
# Experimental: as §1
# [6] = test system: PpyLit (chimeric luciferase, SEQ ID NO: 8) variant F465R; test: as above; type: biochemical, Photinus pyralis / Luciola italica; details: pH 7.8
# Experimental: as §1
# [7] = test system: PpyLit (chimeric luciferase, SEQ ID NO: 8) variant I232A/I351V/E354K; test: as above; type: biochemical, Photinus pyralis / Luciola italica; details: pH 7.8
# Experimental: as §1
# [8] = test system: PpyLit (chimeric luciferase, SEQ ID NO: 8) variant I232A/E354K; test: as above; type: biochemical, Photinus pyralis / Luciola italica; details: pH 7.8
# Experimental: as §1
# [9] = test system: PpyLit, chimeric luciferase of PpyWT residues 1-439 and LitWT residues 440-550, SEQ ID NO: 8; test: as above; type: biochemical, Photinus pyralis / Luciola italica; details: pH 7.8
# Experimental: as §1
# [10] = test system: PpyLit (chimeric luciferase, SEQ ID NO: 8) variant S284T/I351V/E354K; test: as above; type: biochemical, Photinus pyralis / Luciola italica; details: pH 7.8
# Experimental: as §1
# [11] = test system: PpyLit (chimeric luciferase, SEQ ID NO: 8) variant I351V/E354K; test: as above; type: biochemical, Photinus pyralis / Luciola italica; details: pH 7.8
# Experimental: as §1
# [12] = test system: Ppy RE-TSLit, chimeric luciferase of Ppy RE-TS N-domain and LitWT C-domain; test: as above; type: biochemical, Photinus pyralis / Luciola italica; details: pH 7.8
# Experimental: as §1
# [13] = test system: PpyLit (chimeric luciferase, SEQ ID NO: 8) variant I351V/E354K/F465R; test: as above; type: biochemical, Photinus pyralis / Luciola italica; details: pH 7.8
# Experimental: as §1
# [14] = target: Photinus pyralis luciferase, recombinant wild type (PpyWT), SEQ ID NO: 4, with N-terminal peptide GPLGS (Photinus pyralis, UniProt P08659); test: as above; type: biochemical; details: pH 7.8; Vmax from LH2 Km measurement
# Chain of Photinus pyralis luciferase, recombinant wild type (PpyWT), SEQ ID NO: 4, with N-terminal peptide GPLGS (P08659 whole entry, the tested form may be a part): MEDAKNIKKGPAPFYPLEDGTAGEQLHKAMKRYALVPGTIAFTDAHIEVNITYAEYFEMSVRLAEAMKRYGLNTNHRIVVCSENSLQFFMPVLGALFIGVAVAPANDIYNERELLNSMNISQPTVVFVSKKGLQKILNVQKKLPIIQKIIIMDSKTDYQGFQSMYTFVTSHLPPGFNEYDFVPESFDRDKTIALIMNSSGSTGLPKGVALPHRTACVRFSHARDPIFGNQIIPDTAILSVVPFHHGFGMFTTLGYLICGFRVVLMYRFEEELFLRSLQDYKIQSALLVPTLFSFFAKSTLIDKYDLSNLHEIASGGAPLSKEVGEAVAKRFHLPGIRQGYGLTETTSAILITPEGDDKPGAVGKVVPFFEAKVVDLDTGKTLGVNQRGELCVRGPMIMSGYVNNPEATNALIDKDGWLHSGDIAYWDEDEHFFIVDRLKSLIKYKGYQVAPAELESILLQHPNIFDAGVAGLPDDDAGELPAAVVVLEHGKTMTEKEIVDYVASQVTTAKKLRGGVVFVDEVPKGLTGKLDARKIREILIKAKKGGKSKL
# [15] = test system: PpyLit, chimeric luciferase of PpyWT residues 1-439 and LitWT residues 440-550, SEQ ID NO: 8; test: Rate of oxidative half-reaction with synthetic LH2-AMP; type: biochemical, Photinus pyralis / Luciola italica; details: faster than PpyWT; LH2-AMP as substrate, pH 7.8
# Experimental: The estimated rates of the oxidative half-reactions were based on bioluminescence activity assays using synthetic LH2-AMP as the substrate. Assays (0.510 mL) in 50 mM glycylglycine buffer, pH 7.8, contained 0.1 mL aliquots of LH2-AMP solution (final concentration 1.5-35 μM) in 10 mM sodium acetate, pH 4.5. Immediately, light reactions were initiated by injections of 10 μL of luciferase enzymes (0.4-1 μg in CBA). Kinetic constants were determined using a nonlinear least squares method of the Enzyme Kinetics Pro software (SynTex), which fits data from the Michalis-Menten equation to a rectangular hyperbola. The corresponding kcat values were obtained by dividing the Vmax values by the final amounts (μmol) of each luciferase in the assay mixtures.
# [16] = substrate: Nc1ncnc2c1ncn2[C@@H]1O[C@H](COP(=O)(O)OP(=O)(O)OP(=O)(O)O)[C@@H](O)[C@H]1O; test: purified protein, by the assay type; details: other: pH 7.8, LH2 saturating, 37.0 °C
# [17] = substrate: O=C(O)[C@H]1CSC(c2nc3ccc(O)cc3s2)=N1; test: purified protein, by the assay type; details: other: pH 7.8, Mg-ATP saturating, 37.0 °C
# [18] = read-out: Km LH2, Mg-ATP saturating
molecule,measurement,setting,value
"O=C(O)c1csc(-c2nc3ccc(O)cc3s2)n1 [L, dehydroluciferin]",rate of adenylate formation half reaction,[1],~1.35 fold
"O=C(O)[C@H]1CSC(c2nc3ccc(O)cc3s2)=N1 [LH2, D-firefly luciferin]",kcat,[2]; Vmax from LH2 Km measurement,0.033 ± 0.001 s⁻¹
same,Km,[2]; [18],54 ± 5 µM
same,kcat,[3]; Vmax from LH2 Km measurement,0.10 ± 0.01 s⁻¹
same,Km,[3]; [18],15 ± 2 µM
same,kcat,[4]; Vmax from LH2 Km measurement,0.079 ± 0.001 s⁻¹
same,Km,[4]; [18],123 ± 9 µM
same,kcat,[5]; Vmax from LH2 Km measurement,0.10 ± 0.01 s⁻¹
same,Km,[5]; [18],22 ± 3 µM
same,kcat,[6]; Vmax from LH2 Km measurement,0.34 ± 0.02 s⁻¹
same,Km,[6]; [18],31 ± 3 µM
same,kcat,[7]; Vmax from LH2 Km measurement,0.24 ± 0.01 s⁻¹
same,Km,[7]; [18],51 ± 5 µM
same,kcat,[8]; Vmax from LH2 Km measurement,0.25 ± 0.01 s⁻¹
same,Km,[8]; [18],24 ± 3 µM
same,kcat,[9]; Vmax from LH2 Km measurement,0.32 ± 0.02 s⁻¹
same,Km,[9]; [18],25 ± 2 µM
same,kcat,[10]; Vmax from LH2 Km measurement,0.13 ± 0.01 s⁻¹
same,Km,[10]; [18],49 ± 5 µM
same,kcat,[11]; Vmax from LH2 Km measurement,0.30 ± 0.02 s⁻¹
same,Km,[11]; [18],52 ± 5 µM
same,kcat,[12]; Vmax from LH2 Km measurement,0.09 ± 0.003 s⁻¹
same,Km,[12]; [18],51 ± 3 µM
same,kcat,[13]; Vmax from LH2 Km measurement,0.29 ± 0.01 s⁻¹
same,Km,[13]; [18],83 ± 3 µM
same,kcat,[14],0.18 ± 0.01 s⁻¹
Nc1ncnc2c1ncn2[C@@H]1O[C@H](COP(=O)(O)OC(=O)[C@H]2CSC(c3nc4ccc(O)cc4s3)=N2)[C@@H](O)[C@H]1O [LH2-AMP],rate of oxidative half reaction,[15],~1.35 fold
"LitWT, recombinant Luciola italica luciferase containing Lys547Gly/Met548Gly, SEQ ID NO: 6, with N-terminal peptide GPLGS (Luciola italica; K547G/M548G) (protein) METEREENVVYGPLPFYPIEEGSAGIQLHKYMQQYAKLGAIAFSNALTGVDISYQQYFDITCRLAEAMKNYGMKPEGHIALCSENCEEFFIPVLAGLYIGVTVAPTNEIYTLRELNHSLGIAQPTIVFSSRKGLPKVLEVQKTVTCIKTIVILDSKVNFGGYDCVETFIKKHVELGFPATSFVPIDVKDRKHHIALLMNSSGSTGLPKGVEITHEGTVTRFSHAKDPIYGNQVSPGTAILTVVPFHHGFGMFTTLGYFACGYRIVMLTKFDEELFLRTLQDYKCTSVILVPTLFAILNRSELLDKFDLSNLTEIASGGAPLAKEIGEAVARRFNLPGVRQGYGLTETTSAFIITPEGDDKPGASGKVVPLFKVKIIDLDTKKTLGVNRRGEICVKGPSLMLGYTNNPEATRETIDEEGWLHTGDIGYYDEDEHFFIVDRLKSLIKYKGYQVPPAELESVLLQHPNIFDAGVAGVPDSEAGELPGAVVVMEKGKTMTEKEIVDYVNSQVVNHKRLRGGVRFVDEVPKGLTGKIDAKVIREILKKPQAGG",Km,[16],180 ± 14 µM
same,Km,[17],90 ± 9 µM
same,kcat,[17],0.14 ± 0.01 s⁻¹

# Reference: US20150152395A1, “CHIMERIC LUCIFERASES” (Connecticut College, priority 2012, published 2015)
